In US10266526B2, “Substituted 1,2,3-triazoles as SMYD inhibitors for treating cancer” (EPIZYME, INC., priority 2014, dated 2019):

target: SMYD2 (Homo sapiens (Human), UniProt Q9NRG4); experiment: SMYD2 biochemical assay (SMYD2 enzyme assay on peptide substrate, 3H-SAM Flashplate); conditions: read-out: SMYD2 Biochem IC50; IC50 values are an average of n = 1 to n = 50
Sequence (Q9NRG4 whole entry): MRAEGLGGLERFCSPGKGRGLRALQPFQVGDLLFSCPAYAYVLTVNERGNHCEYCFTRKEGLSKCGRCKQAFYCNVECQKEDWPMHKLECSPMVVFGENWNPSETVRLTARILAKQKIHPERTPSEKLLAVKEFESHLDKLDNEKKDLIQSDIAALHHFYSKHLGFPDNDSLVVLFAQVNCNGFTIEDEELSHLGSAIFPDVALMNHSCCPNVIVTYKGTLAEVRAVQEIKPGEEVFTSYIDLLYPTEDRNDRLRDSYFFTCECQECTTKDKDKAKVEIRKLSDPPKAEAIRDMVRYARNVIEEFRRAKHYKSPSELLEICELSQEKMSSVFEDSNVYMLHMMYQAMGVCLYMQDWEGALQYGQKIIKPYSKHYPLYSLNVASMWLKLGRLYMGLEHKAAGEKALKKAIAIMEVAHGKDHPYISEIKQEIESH

Compared with `COc1ccc2c(c1)CCCC2N1CC(NC(=O)c2cn(C3CC3)nn2)C1` (centres unmarked) [compound 793, 1-cyclopropyl-N-[1-(6-methoxy-1,2,3,4-tetrahydronaphthalen-1-yl)azetidin-3-yl]-1H-1,2,3-triazole-4-carboxamide], `O=C(NC1CN(C2CCc3cc(Cl)ccc32)C1)c1cn(C2CC2)nn1` (centres unmarked) [compound 719, N-[1-(5-chloro-2,3-dihydro-1H-inden-1-yl)azetidin-3-yl]-1-cyclopropyl-1H-1,2,3-triazole-4-carboxamide] is 2.2-fold lower in IC50: 9920 nM for the first, 4410 nM for the second.

Going from `CC(c1cccc(OCC(O)CO)c1Cl)N1CC(NC(=O)c2cn(C3CC3)nn2)C1` (centres unmarked) [compound 973, N-(1-(1-(2-chloro-3-(2,3-dihydroxypropoxy)phenyl)ethyl)azetidin-3-yl)-1-cyclopropyl-1H-1,2,3-triazole-4-carboxamide] to `COc1ccc(Cl)cc1C(C)N1CC(NC(=O)c2cn(C3CC3)nn2)C1` (centres unmarked) [compound 860, N-{1-[1-(5-chloro-2-methoxyphenyl)ethyl]azetidin-3-yl}-1-cyclopropyl-1H-1,2,3-triazole-4-carboxamide], the IC50 falls from over 50000 nM to 2790 nM. The second is the more potent here.

Going from `COc1ccc(COc2ccc(C(C)N3CC(NC(=O)c4cn(C5CC5)nn4)C3)cc2)cc1` (centres unmarked) [compound 855, 1-cyclopropyl-N-[1-(1-{4-[(4-methoxyphenyl)methoxy]phenyl}ethyl)azetidin-3-yl]-1H-1,2,3-triazole-4-carboxamide] to `CC(c1ccc(OCC(F)(F)F)cc1)N1CC(NC(=O)c2cn(C3CC3)nn2)C1` (centres unmarked) [compound 968, 1-cyclopropyl-N-(1-(1-(4-(2,2,2-trifluoroethoxy)phenyl)ethyl)azetidin-3-yl)-1H-1,2,3-triazole-4-carboxamide], the IC50 rises from 159 nM to 1700 nM (11-fold). The first is the more potent here.

First: O=C(NC1CN(C(CO)c2ccc(F)cc2)C1)c1cn(C2CC2)nn1 (centres unmarked) [compound 813, 1-cyclopropyl-N-{1-[1-(4-fluorophenyl)-2-hydroxyethyl]azetidin-3-yl}-1H-1,2,3-triazole-4-carboxamide]
Second: CC(c1cc(F)ccc1F)N1CC(NC(=O)c2cn(C3CC3)nn2)C1 (centres unmarked) [compound 746, 1-cyclopropyl-N-{1-[1-(2,5-difluorophenyl)ethyl]azetidin-3-yl}-1H-1,2,3-triazole-4-carboxamide]
The IC50 of the first is 2-fold higher: 15200 nM for the first, 7780 nM for the second. The second is the more potent here.

First: CC(c1c[nH]cn1)N1CC(NC(=O)c2cn(C3CC3)nn2)C1 (centres unmarked) [compound 785, 1-cyclopropyl-N-{1-[1-(1H-imidazol-4-yl)ethyl]azetidin-3-yl}-1H-1,2,3-triazole-4-carboxamide]
Second: CC(c1ccc(=O)[nH]c1)N1CC(NC(=O)c2cn(C3CC3)nn2)C1 (centres unmarked) [compound 994, 1-cyclopropyl-N-(1-(1-(6-oxo-1,6-dihydropyridin-3-yl)ethyl)azetidin-3-yl)-1H-1,2,3-triazole-4-carboxamide]
The IC50 of the first is 2.1-fold lower: 2590 nM for the first, 5400 nM for the second.

Going from `CC(c1c(Cl)cccc1Cl)N1CC(NC(=O)c2cn(C3CC3)nn2)C1` (centres unmarked) [compound 769, 1-cyclopropyl-N-{1-[1-(2,6-dichlorophenyl)ethyl]azetidin-3-yl}-1H-1,2,3-triazole-4-carboxamide] to `CC(c1c(F)cccc1F)N1CC(NC(=O)c2cn(C3CC3)nn2)C1` (centres unmarked) [compound 742, 1-cyclopropyl-N-{1-[1-(2,6-difluorophenyl)ethyl]azetidin-3-yl}-1H-1,2,3-triazole-4-carboxamide], the IC50 rises from 1200 nM to 2850 nM (2.4-fold). The first is the more potent here.

Compared with `O=C(NC1CN(Cc2cn(Cc3ccccc3)nn2)C1)c1cn(C2CC2)nn1` [compound 931, N-(1-((1-benzyl-1H-1,2,3-triazol-4-yl)methyl)azetidin-3-yl)-1-cyclopropyl-1H-1,2,3-triazole-4-carboxamide], `O=C(NC1CN(Cc2cnn(Cc3ccccc3)c2)C1)c1cn(C2CC2)nn1` [compound 792, N-{1-[(1-benzyl-1H-pyrazol-4-yl)methyl]azetidin-3-yl}-1-cyclopropyl-1H-1,2,3-triazole-4-carboxamide] is 680-fold lower in IC50: 11100 nM for the first, 16.4 nM for the second. The second is the more potent here.

`O=C(NC1CN(Cc2ccc(O)cc2)C1)c1cn(C2CC2)nn1` [compound 824, 1-cyclopropyl-N-{1-[(4-hydroxyphenyl)methyl]azetidin-3-yl}-1H-1,2,3-triazole-4-carboxamide] and `O=C(NC1CN(Cc2ccc(OCc3cscn3)cc2)C1)c1cn(C2CC2)nn1` [compound 846, 1-cyclopropyl-N-(1-{[4-(1,3-thiazol-4-ylmethoxy)phenyl]methyl}azetidin-3-yl)-1H-1,2,3-triazole-4-carboxamide] are within 1.5-fold of each other in IC50: 882 nM for the first, 1090 nM for the second.

Compared with `COc1cccc(C(C)N2CC(NC(=O)c3cc(C4CC4)ccn3)C2)c1OC` (centres unmarked) [compound 1005, 4-cyclopropyl-N-(1-(1-(2,3-dimethoxyphenyl)ethyl)azetidin-3-yl)picolinamide], `CC(C)N1CC(NC(=O)c2cc(C3CC3)ccn2)C1` [compound 961, 4-cyclopropyl-N-(1-isopropylazetidin-3-yl)picolinamide] is 10-fold higher in IC50: 130 nM for the first, 1300 nM for the second. The first is the more potent here.

`O=C(NC1CN(Cc2cnn(CC3CCOCC3)c2)C1)c1cn(C2CC2)nn1` [compound 949, 1-cyclopropyl-N-(1-((1-((tetrahydro-2H-pyran-4-yl)methyl)-1H-pyrazol-4-yl)methyl)azetidin-3-yl)-1H-1,2,3-triazole-4-carboxamide] and `CCn1cc(CN2CC(NC(=O)c3cn(C4CC4)nn3)C2)cn1` [compound 946, 1-cyclopropyl-N-(1-((1-ethyl-1H-pyrazol-4-yl)methyl)azetidin-3-yl)-1H-1,2,3-triazole-4-carboxamide] are within 1.5-fold of each other in IC50: 2400 nM for the first, 2000 nM for the second.

First: CC(c1cccc(OCCO)c1)N1CC(NC(=O)c2cn(C3CC3)nn2)C1 (centres unmarked) [compound 704, 1-cyclopropyl-N-(1-{1-[3-(2-hydroxyethoxy)phenyl]ethyl}azetidin-3-yl)-1H-1,2,3-triazole-4-carboxamide]
Second: CNCCOc1cccc(CN2CC(NC(=O)c3cn(C4CC4)nn3)C2)c1 [compound 735, 1-cyclopropyl-N-[1-({3-[2-(methylamino)ethoxy]phenyl}methyl)azetidin-3-yl]-1H-1,2,3-triazole-4-carboxamide]
The IC50 of the first is 3.6-fold lower: 640 nM for the first, 2330 nM for the second.

`O=C(NC1CN(Cc2cn(CCc3ccccc3)cn2)C1)c1cc(C2CC2)cnn1` [compound 838, 5-cyclopropyl-N-(1-{[1-(2-phenylethyl)-1H-imidazol-4-yl]methyl}azetidin-3-yl)pyridazine-3-carboxamide] and `O=C(NC1CN(Cc2cnn(CCc3ccccc3)c2)C1)c1cc(C2CC2)cnn1` [compound 807, 5-cyclopropyl-N-(1-{[1-(2-phenylethyl)-1H-pyrazol-4-yl]methyl}azetidin-3-yl)pyridazine-3-carboxamide] are within 1.5-fold of each other in IC50: 496 nM for the first, 528 nM for the second.

Going from `O=C(NC1CN(CCc2ccccc2)C1)c1cn(C2CC2)nn1` [compound 673, 1-cyclopropyl-N-[1-(2-phenylethyl)azetidin-3-yl]-1H-1,2,3-triazole-4-carboxamide] to `O=C(NC1CN(Cc2ccc(OCc3ccccc3)cc2)C1)c1cn(C2CC2)nn1` [compound 802, N-(1-{[4-(benzyloxy)phenyl]methyl}azetidin-3-yl)-1-cyclopropyl-1H-1,2,3-triazole-4-carboxamide], the IC50 falls from 1550 nM to 83.4 nM (19-fold). The second is the more potent here.

`COc1ccc(C(C)N2CC(NC(=O)c3cn(C4CC4)nn3)C2)c(Cl)c1` (centres unmarked) [compound 1002, N-(1-(1-(2-chloro-4-methoxyphenyl)ethyl)azetidin-3-yl)-1-cyclopropyl-1H-1,2,3-triazole-4-carboxamide] and `CC(c1ccc(OCc2ccccc2)cc1Cl)N1CC(NC(=O)c2cn(C3CC3)nn2)C1` (centres unmarked) [compound 817, N-(1-{1-[4-(benzyloxy)-2-chlorophenyl]ethyl}azetidin-3-yl)-1-cyclopropyl-1H-1,2,3-triazole-4-carboxamide] are within 1.5-fold of each other in IC50: 88 nM for the first, 102 nM for the second.

Compared with `CC(c1ccccc1OC(F)(F)F)N1CC(NC(=O)c2cn(C3CC3)nn2)C1` (centres unmarked) [compound 684, 1-cyclopropyl-N-(1-{1-[2-(trifluoromethoxy)phenyl]ethyl}azetidin-3-yl)-1H-1,2,3-triazole-4-carboxamide], `CNCc1cccc(C(C)N2CC(NC(=O)c3cn(C4CC4)nn3)C2)c1OC` (centres unmarked) [compound 835, 1-cyclopropyl-N-[1-(1-(2-methoxy-3-[(methylamino)methyl]phenyl}ethyl)azetidin-3-yl]-1H-1,2,3-triazole-4-carboxamide] is 2.7-fold lower in IC50: 2130 nM for the first, 780 nM for the second.

Going from `CC(c1cc(Cl)ccc1Oc1ccc(F)cc1)N1CC(NC(=O)c2cn(C3CC3)nn2)C1` (centres unmarked) [compound 989, N-(1-(1-(5-chloro-2-(4-fluorophenoxy)phenyl)ethyl)azetidin-3-yl)-1-cyclopropyl-1H-1,2,3-triazole-4-carboxamide] to `CC(c1ccc(NCc2ccccc2)cc1)N1CC(NC(=O)c2cn(C3CC3)nn2)C1` (centres unmarked) [compound 862, N-(1-{1-[4-(benzylamino)phenyl]ethyl}azetidin-3-yl)-1-cyclopropyl-1H-1,2,3-triazole-4-carboxamide], the IC50 falls from over 50000 nM to 334 nM. The second is the more potent here.

Going from `CC(C)N1CCC(NC(=O)c2cc(C3CC3)cnn2)CC1` [compound 916, 5-cyclopropyl-N-[1-(propan-2-yl)piperidin-4-yl]pyridazine-3-carboxamide] to `CN1CCC(NC(=O)c2cc(C3CC3)cnn2)CC1` [compound 917, 5-cyclopropyl-N-(1-methylpiperidin-4-yl)pyridazine-3-carboxamide], the IC50 rises from 29100 nM to over 50000 nM. The first is the more potent here.

First: COc1ccc(Cn2cc(CN3CC(NC(=O)c4cn(C5CC5)nn4)C3)cn2)cc1 [compound 932, 1-cyclopropyl-N-(1-((1-(4-methoxybenzyl)-1H-pyrazol-4-yl)methyl)azetidin-3-yl)-1H-1,2,3-triazole-4-carboxamide]
Second: Cn1cc(COc2ccc(CN3CC(NC(=O)c4cc(C5CC5)cnn4)C3)cc2)cn1 [compound 928, 5-cyclopropyl-N-(1-(4-((1-methyl-1H-pyrazol-4-yl)methoxy)benzyl)azetidin-3-yl)pyridazine-3-carboxamide]
The IC50 of the first is 22-fold lower: 28 nM for the first, 610 nM for the second.

Going from `O=C(NC1CN(Cc2cnn(Cc3ccccc3)c2)C1)c1ncc(C2CC2)[nH]1` [compound 986, N-(1-((1-benzyl-1H-pyrazol-4-yl)methyl)azetidin-3-yl)-5-cyclopropyl-1H-imidazole-2-carboxamide] to `O=C(NC1CN(Cc2ccc3c(c2)C(=O)NC3)C1)c1cn(C2CC2)nn1` [compound 765, 1-cyclopropyl-N-{1-[(3-oxo-2,3-dihydro-1H-isoindol-5-yl)methyl]azetidin-3-yl}-1H-1,2,3-triazole-4-carboxamide], the IC50 falls from over 50000 nM to 10200 nM. The second is the more potent here.
